Reference: ChEMBL document CHEMBL2163253, “Identification and preliminary characterization of a potent, safe, and orally efficacious inhibitor of acyl-CoA:diacylglycerol acyltransferase 1” (J Med Chem, 2012)
Activity calls are given as the source filed them. No cut-off for these calls is given here.

What was measured:
[1] = Stability in human liver microsomes assessed as parent compound remaining measured after 60 mins; format: ADME, Microsome; conditions: read-out: Stability
[2] = target: T1, Diacylglycerol O-acyltransferase 1 (Homo sapiens, UniProt O75907); experiment: biochemical
T1 sequence (O75907 whole entry): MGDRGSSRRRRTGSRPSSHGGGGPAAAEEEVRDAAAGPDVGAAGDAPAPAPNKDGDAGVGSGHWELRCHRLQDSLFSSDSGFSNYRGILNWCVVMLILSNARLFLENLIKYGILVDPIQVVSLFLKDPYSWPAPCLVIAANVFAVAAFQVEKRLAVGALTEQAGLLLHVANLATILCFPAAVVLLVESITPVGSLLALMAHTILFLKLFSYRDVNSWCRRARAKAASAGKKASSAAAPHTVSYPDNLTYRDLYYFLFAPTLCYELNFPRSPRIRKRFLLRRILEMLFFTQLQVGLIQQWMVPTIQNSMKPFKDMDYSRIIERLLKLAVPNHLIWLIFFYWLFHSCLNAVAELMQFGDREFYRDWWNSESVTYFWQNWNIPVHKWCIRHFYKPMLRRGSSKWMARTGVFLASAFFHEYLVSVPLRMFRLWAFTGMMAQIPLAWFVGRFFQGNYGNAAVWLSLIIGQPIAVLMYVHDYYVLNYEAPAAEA
Description: Inhibition of N-terminal His6-tagged human recombinant DGAT1 expressed in insect cell membrane using [1-14C]decanoyl-CoA substrate by phospholipid flash plate assay

Canis familiaris [3] = experiment: Toxicity in dog assessed as toxicity symptoms at terminal compound concentration dosed orally for 2 weeks; format: organism-based, Canis lupus familiaris; conditions: in vivo, po, 336 h
Rattus norvegicus [4] = experiment: Toxicity in female rat assessed as toxicity symptoms at terminal compound concentration dosed orally for 2 weeks; format: organism-based; conditions: in vivo, po, 336 h
Rattus norvegicus [5] = organism: Rattus norvegicus; experiment: Toxicity in rat assessed as changes in gastrointestinal transit measured at highest compound concentration; format: organism-based; conditions: in vivo
[6] = Cmax in rat; format: ADME, organism-based; conditions: plasma
Mustela putorius furo = organism: Mustela putorius furo; experiment: Toxicity in ferret assessed as induction of emesis; format: organism-based; conditions: in vivo
[7] = Cmax in dog; format: ADME, organism-based, Canis lupus familiaris; conditions: plasma
[8] = Toxicity in dog Purkinje fibers assessed as prolongation of APD90 by Purkinje fibers repolarization assay; format: tissue-based, Canis lupus familiaris, Purkinje fiber; conditions: in vitro
[9] = target: Voltage-gated inwardly rectifying potassium channel KCNH2 (Homo sapiens, UniProt Q12809); experiment: Inhibition of human ERG by manual patch clamp assay
Mus musculus [10] = experiment: Reduction in serum triglyceride level in overnight fasted DIO mouse model at 0.3 mg/kg, po administered as single dose 1 hr before and for 5 hrs after oral corn oil bolus challenge; format: functional, organism-based; design: dose 0.3 mg/kg
[11] = Plasma concentration in CD1 mouse postprandial hyperlipidemia model at 3 mg/kg, po administered as single dose 1 hr before oral corn oil bolus challenge and measured after 2 hrs; format: ADME, organism-based; design: dose 3 mg/kg, route oral
[12] = Plasma concentration in CD1 mouse postprandial hyperlipidemia model at 0.3 mg/kg, po administered as single dose 1 hr before oral corn oil bolus challenge and measured after 2 hrs; format: ADME, organism-based; design: dose 0.3 mg/kg, route oral
[13] = Plasma concentration in CD1 mouse postprandial hyperlipidemia model at 0.03 mg/kg, po administered as single dose 1 hr before oral corn oil bolus challenge and measured after 2 hrs; format: ADME, organism-based; design: dose 0.03 mg/kg, route oral
Mus musculus [14] = experiment: Reduction in serum triglyceride level in CD1 mouse postprandial hyperlipidemia model at 3 mg/kg, po administered as single dose 1 hr before oral corn oil bolus challenge and measured after 2 hrs; format: functional; design: scale not given: the % may be the effect or the level left
Mus musculus [15] = experiment: Reduction in serum triglyceride level in CD1 mouse postprandial hyperlipidemia model at 0.3 mg/kg, po administered as single dose 1 hr before oral corn oil bolus challenge and measured after 2 hrs; format: functional; design: scale not given: the % may be the effect or the level left
Mus musculus [16] = experiment: Reduction in serum triglyceride level in CD1 mouse postprandial hyperlipidemia model at 0.03 mg/kg, po administered as single dose 1 hr before oral corn oil bolus challenge and measured after 2 hrs; format: functional; design: scale not given: the % may be the effect or the level left
Mus musculus [17] = experiment: Reduction in serum triglyceride level in CD1 mouse postprandial hyperlipidemia model administered orally as single dose 1 hr before oral corn oil bolus challenge and measured after 2 hrs; format: functional, organism-based
Canis familiaris [18] = organism: Canis familiaris; experiment: Toxicity in dog assessed as incidence of hemodynamic effect measured at highest compound concentration; format: organism-based, Canis lupus familiaris; conditions: in vivo
[19] = Oral bioavailability in rat at 5 mg/kg administered as single dose; format: ADME, organism-based; conditions: in vivo
[20] = AUC in rat at 5 mg/kg, po administered as single dose; format: ADME, organism-based; design: dose 5 mg/kg, route oral; conditions: plasma
[21] = Cmax in rat at 5 mg/kg, po administered as single dose; format: ADME, organism-based; design: dose 5 mg/kg, route oral; conditions: in vivo
[22] = Terminal half life in rat at 5 mg/kg, po administered as single dose; format: ADME, organism-based; design: dose 5 mg/kg, route oral; conditions: in vivo, read-out: beta t1/2 (converted)
[23] = Plasma clearance in rat at 5 mg/kg, iv administered as single dose; format: ADME, organism-based; design: dose 5 mg/kg, route intravenous
[24] = Volume of distribution at steady state in rat at 5 mg/kg, iv administered as single dose; format: ADME, organism-based; design: dose 5 mg/kg, route intravenous; conditions: in vivo, read-out: Vdss
[25] = Terminal half life in rat at 5 mg/kg, iv administered as single dose; format: ADME, organism-based; design: dose 5 mg/kg, route intravenous; conditions: in vivo, read-out: beta t1/2 (converted)
[26] = Oral bioavailability in mouse at 10 mg/kg administered as single dose; format: ADME, organism-based; conditions: in vivo
[27] = AUC in mouse at 10 mg/kg, po administered as single dose; format: ADME, organism-based; design: dose 10 mg/kg, route oral; conditions: plasma
[28] = Cmax in mouse at 10 mg/kg, po administered as single dose; format: ADME, organism-based; design: dose 10 mg/kg, route oral; conditions: in vivo
[29] = Terminal half life in mouse at 10 mg/kg, po administered as single dose; format: ADME, organism-based; design: dose 10 mg/kg, route oral; conditions: in vivo, read-out: beta t1/2 (converted)
[30] = Plasma clearance in mouse at 10 mg/kg, iv administered as single dose; format: ADME, organism-based; design: dose 10 mg/kg, route intravenous
[31] = Volume of distribution at steady state in mouse at 10 mg/kg, iv administered as single dose; format: ADME, organism-based; design: dose 10 mg/kg, route intravenous; conditions: in vivo, read-out: Vdss
[32] = Terminal half life in mouse at 10 mg/kg, iv administered as single dose; format: ADME, organism-based; design: dose 10 mg/kg, route intravenous; conditions: in vivo, read-out: beta t1/2 (converted)
[33] = Efflux ratio in human Caco2 cells at 5 uM at pH 7.4; format: ADME, cell-based; conditions: Caco-2, pH 7.4
[34] = Efflux ratio in human Caco2 cells at 0.5 uM at pH 7.4; format: ADME, cell-based; conditions: Caco-2, pH 7.4
[35] = Permeability in human Caco2 cells at 0.5 uM at pH 7.4; format: ADME, cell-based; conditions: Caco-2, pH 7.4, read-out: permeability
[36] = Stability in mouse liver microsomes assessed as parent compound remaining measured after 60 mins; format: ADME, Microsome; conditions: read-out: Stability
[37] = target: T1, Diacylglycerol O-acyltransferase 1; experiment: Inhibition of human DGAT1 expressed in human HeLa cells assessed as reduction in triglyceride synthesis; format: cell-based
[38] = target: T2, Diacylglycerol O-acyltransferase 2 (Homo sapiens, UniProt Q96PD7); experiment: Inhibition of human recombinant DGAT2 expressed in insect cell membrane using [1-14C]decanoyl-CoA substrate by phospholipid flash plate assay
T2 sequence (Q96PD7 whole entry): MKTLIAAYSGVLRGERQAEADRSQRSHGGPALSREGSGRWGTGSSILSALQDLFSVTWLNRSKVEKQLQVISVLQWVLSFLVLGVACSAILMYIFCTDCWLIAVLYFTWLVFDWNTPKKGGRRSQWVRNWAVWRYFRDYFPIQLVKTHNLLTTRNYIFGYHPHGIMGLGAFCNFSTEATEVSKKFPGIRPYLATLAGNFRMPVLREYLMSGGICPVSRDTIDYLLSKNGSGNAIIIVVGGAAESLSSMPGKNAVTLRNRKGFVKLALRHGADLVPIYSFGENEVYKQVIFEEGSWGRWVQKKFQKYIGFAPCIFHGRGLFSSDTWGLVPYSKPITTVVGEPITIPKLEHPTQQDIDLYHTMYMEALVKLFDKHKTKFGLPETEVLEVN

[39] = target: T3, Diacylglycerol O-acyltransferase 1 (Mus musculus, UniProt Q9Z2A7); experiment: Inhibition of mouse DGAT1 using [1-14C]decanoyl-CoA substrate by phospholipid flash plate assay
T3 sequence (Q9Z2A7 whole entry): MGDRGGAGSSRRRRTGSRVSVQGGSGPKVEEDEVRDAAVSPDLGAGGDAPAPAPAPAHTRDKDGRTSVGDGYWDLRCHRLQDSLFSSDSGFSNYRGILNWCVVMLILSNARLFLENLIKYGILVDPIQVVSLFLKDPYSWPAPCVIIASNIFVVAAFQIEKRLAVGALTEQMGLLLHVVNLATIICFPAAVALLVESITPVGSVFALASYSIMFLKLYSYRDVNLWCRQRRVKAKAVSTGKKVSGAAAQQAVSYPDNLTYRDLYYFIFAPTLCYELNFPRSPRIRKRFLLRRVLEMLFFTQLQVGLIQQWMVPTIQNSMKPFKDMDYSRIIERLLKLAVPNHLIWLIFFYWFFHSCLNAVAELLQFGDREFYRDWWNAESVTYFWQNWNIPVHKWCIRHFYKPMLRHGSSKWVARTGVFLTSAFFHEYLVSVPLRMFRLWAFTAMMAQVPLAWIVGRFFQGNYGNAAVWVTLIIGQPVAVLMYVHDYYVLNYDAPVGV

Canis familiaris [40] = experiment: AUC in dog dosed orally for 2 weeks assessed as terminal exposure; conditions: in vivo, po, 336 h
Rattus norvegicus [41] = experiment: AUC in female rat dosed orally for 2 weeks assessed as terminal exposure; conditions: in vivo, po, 336 h

Chain of Voltage-gated inwardly rectifying potassium channel KCNH2 (Q12809 whole entry): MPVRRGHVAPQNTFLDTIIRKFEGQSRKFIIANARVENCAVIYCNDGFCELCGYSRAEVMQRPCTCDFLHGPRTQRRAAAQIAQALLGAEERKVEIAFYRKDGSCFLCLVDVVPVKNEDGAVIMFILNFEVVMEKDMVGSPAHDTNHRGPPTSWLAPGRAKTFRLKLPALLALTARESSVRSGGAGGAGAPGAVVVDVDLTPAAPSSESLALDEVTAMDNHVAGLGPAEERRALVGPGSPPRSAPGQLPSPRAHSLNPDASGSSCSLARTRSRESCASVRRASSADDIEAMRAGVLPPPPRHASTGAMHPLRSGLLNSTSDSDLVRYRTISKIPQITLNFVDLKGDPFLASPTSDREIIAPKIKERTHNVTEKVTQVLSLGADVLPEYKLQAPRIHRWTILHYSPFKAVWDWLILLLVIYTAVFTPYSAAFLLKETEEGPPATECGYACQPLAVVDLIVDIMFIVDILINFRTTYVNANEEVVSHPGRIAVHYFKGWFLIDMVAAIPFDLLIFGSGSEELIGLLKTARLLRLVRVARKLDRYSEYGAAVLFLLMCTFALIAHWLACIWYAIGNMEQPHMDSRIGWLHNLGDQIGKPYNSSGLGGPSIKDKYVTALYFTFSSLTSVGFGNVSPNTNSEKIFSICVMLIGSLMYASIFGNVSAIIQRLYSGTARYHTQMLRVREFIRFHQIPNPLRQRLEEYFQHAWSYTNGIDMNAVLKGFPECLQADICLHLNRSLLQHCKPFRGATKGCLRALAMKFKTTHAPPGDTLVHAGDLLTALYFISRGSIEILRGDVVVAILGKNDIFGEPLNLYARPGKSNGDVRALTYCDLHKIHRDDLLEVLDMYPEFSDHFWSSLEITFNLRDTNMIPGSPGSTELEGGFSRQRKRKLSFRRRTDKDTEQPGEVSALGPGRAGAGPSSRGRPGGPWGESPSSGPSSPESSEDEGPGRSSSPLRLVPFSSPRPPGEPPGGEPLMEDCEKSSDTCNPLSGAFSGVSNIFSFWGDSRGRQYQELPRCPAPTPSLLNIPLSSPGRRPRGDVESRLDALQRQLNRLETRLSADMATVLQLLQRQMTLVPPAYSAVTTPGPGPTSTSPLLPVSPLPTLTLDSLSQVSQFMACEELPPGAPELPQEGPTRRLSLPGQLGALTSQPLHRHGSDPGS

CS(=O)(=O)c1ccc(-c2cnc3ccnn3c2N)cc1
remaining at 1 h [1]: 91%
IC50 [2]: > 10000 nM

Nc1c(-c2ccc(Br)cc2)cnc2ccnn12
remaining at 1 h [1]: < 5%

CC(C)(C)c1ccc(-c2cnc3ccnn3c2N)cc1
remaining at 1 h [1]: 16%

Nc1c(-c2cccc(Br)c2)cnc2ccnn12
remaining at 1 h [1]: < 5%
IC50 [2]: > 10000 nM

Nc1c(-c2ccc([C@H]3CC[C@H](CC(=O)O)CC3)cc2)cnc2ccnn12
Activity (Canis familiaris [3]): Non-toxic
Activity (Rattus norvegicus [4]): Non-toxic
Activity (Rattus norvegicus [5]): Non-toxic
Cmax [6]: 30200 ng/mL
Activity (Mustela putorius furo): Non-toxic
Cmax [7]: 20500 ng/mL
Activity [8]: Non-toxic
IC50 [9]: > 300000 nM
Activity (Mus musculus [10]): Active
concentration at 2 h [11]: 3100 ng/mL
concentration at 2 h [12]: 360 ng/mL
concentration at 2 h [13]: 33 ng/mL
Activity (Mus musculus [14]): 90%
Activity (Mus musculus [15]): 60%
Activity (Mus musculus [16]): 40%
Activity (Mus musculus [17]): Dose-dependent effect
Activity (Canis familiaris [18]): Non-toxic
bioavailability [19]: 91%
AUC [20]: 130 µg·h/mL
Cmax [21]: 9300 ng/mL
half-life [22]: 5.6 h
clearance [23]: 0.833 mL/min/kg
Vd [24]: 0.3 L/kg
half-life [25]: 3.8 h
bioavailability [26]: 78%
AUC [27]: 151 µg·h/mL
Cmax [28]: 17400 ng/mL
half-life [29]: 5.1 h
clearance [30]: 1.67 mL/min/kg
Vd [31]: 0.3 L/kg
half-life [32]: 4.6 h
efflux ratio at 5 µM [33]: 1.1
efflux ratio at 0.5 µM [34]: 1.4
Papp at 0.5 µM [35]: 84 ×10⁻⁶ cm/s
remaining at 1 h [36]: 99%
IC50 [37]: 78 nM
IC50 [38]: > 10000 nM
IC50 [39]: 8 nM
remaining at 1 h [1]: 97%
IC50 [2]: 8 nM
AUC (Canis familiaris [40]): 789 µg·h/mL
AUC (Rattus norvegicus [41]): 3455 µg·h/mL
